Assay results: US7173024B2, “Compounds having prolyl oligopeptidase inhibitory activity, methods for their preparation and their use” (Orion Corporation, priority 2001, dated 2007)

Target: T1, pig brain prolyl oligopeptidase (Sus scrofa, UniProt P23687)
T1 construct: The brains were homogenized with a glass-teflon homogenisator; from tissue; host or cells: pig brain (excluding cerebellum and most of the brain stem), 10000 g supernatant of the homogenate
Experiment: Inhibition of prolyl oligopeptidase activity of pig brain (Suc-Gly-Pro-AMC, fluorometric)
Type: biochemical
Details: pig brain homogenate supernatant, 30° C., pH 7.0
Experimental: The whole pig brains, excluding cerebellum and most of the brain stem, of three pigs were placed in liquid nitrogen within 30 min from killing and stored at −80° C. until homogenized. The brains were homogenized with a glass-teflon homogenisator in 3 volumes (w/v) of ice-cold 0.1 M sodium-potassium phosphate buffer (pH 7.0) and the homogenates were centrifuged for 20 min at 4° C. at 10000 g. The supernatants were collected, pooled and stored in small aliquots at −80° C. until used. The supernatant was thawn in ice just before activity assay and diluted in a ratio 1:2 with homogenisation buffer (=enzyme preparation).
In the microplate assay procedure, 10 μl of enzyme preparation was preincubated with 460 μl of 0.1 M sodium-potassium phosphate buffer (pH 7.0) and 5 μl of a solution of novel compound dissolved in DMSO and diluted with 0.1 M sodium-potassium phosphate buffer at 30° C. for 30 min. The controls contained 10 μl enzyme preparation and 465 μl of 0.1 M sodium-potassium phosphate buffer (pH 7.0). The reaction was initiated by adding 25 μl of 4 mM Suc-Gly-Pro-AMC (AMC: 7-amido-4-methylcoumarin) dissolved in 0.1 M sodium-potassium phosphate buffer (pH 7.0), and the mixture was incubated at 30° C. for 60 min. The reaction was terminated by adding 500 μl of 1 M sodium acetate buffer (pH 4.2).
Formation of 7-amido-4-methylcoumarin was determined fluorometrically with microplate fluorescence reader (excitation at 360 nm and emission at 460 nm). The final concentration of novel compounds in the assay mixture varied from 10^−12 M to 10^−4 M.
The prolyl oligopeptidase activity was calculated with the following formula in the presence of various concentrations of novel compounds. To reveal the inhibitory potency of the novel compound, activities (% of control) were plotted against the log concentration of the compound, and the IC50 value was determined by non-linear regression utilizing GraphPad Prism software.
Activity (% of control)=a/b×100, where • a=flourescence intensity in the presence of a novel compound • […] a novel compound (control)

T1 sequence (P23687 whole entry): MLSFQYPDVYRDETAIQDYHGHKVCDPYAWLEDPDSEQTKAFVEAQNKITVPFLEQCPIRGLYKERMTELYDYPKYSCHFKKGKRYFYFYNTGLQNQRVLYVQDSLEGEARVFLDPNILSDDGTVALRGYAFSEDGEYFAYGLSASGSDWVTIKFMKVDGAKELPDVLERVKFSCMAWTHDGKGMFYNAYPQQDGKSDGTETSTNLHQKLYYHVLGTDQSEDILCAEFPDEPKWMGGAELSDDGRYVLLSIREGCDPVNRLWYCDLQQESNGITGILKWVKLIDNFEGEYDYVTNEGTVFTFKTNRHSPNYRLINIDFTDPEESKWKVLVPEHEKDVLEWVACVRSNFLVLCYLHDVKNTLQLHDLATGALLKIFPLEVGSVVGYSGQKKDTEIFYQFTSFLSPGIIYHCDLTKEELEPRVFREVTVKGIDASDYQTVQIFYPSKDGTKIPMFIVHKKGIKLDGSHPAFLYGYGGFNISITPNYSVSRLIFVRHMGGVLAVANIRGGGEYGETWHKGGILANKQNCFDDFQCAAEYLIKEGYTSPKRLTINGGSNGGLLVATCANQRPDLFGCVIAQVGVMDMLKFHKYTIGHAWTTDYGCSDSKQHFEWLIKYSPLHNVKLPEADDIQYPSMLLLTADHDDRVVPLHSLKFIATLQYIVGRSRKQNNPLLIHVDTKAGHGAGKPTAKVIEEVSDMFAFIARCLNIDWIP

Structure (SMILES) | IC50 [nM]
O=C(CO)[C@@H]1CCCN1C(=O)[C@@H]1CCCN1C(=O)c1cccc(C(=O)N2CCC[C@H]2C(=O)N2CCCC2)c1 [Example 22, Isophthalic acid L-prolyl-2(S)-(hydroxyacetyl)pyrrolidine L-prolyl-pyrrolidine amide] | 0.4
O=C(C1CCCC1)[C@@H]1CCCN1C(=O)c1cccc(C(=O)N2CCC[C@H]2C(=O)C2CCCC2)c1 [Example 41, Isophthalic acid di-(2(S)-(cyclopentanecarbonyl)pyrrolidine)amide] | 78
C[C@H](NC(=O)c1cccc(C(=O)N[C@@H](C)C(=O)N2CCCC2)c1)C(=O)N1CCCC1 [Example 46, Isophthalic acid di-(L-alanyl-pyrrolidine)amide] | 87
CSCC[C@H](NC(=O)c1cccc(C(=O)N[C@@H](CCSC)C(=O)N2CCCC2)c1)C(=O)N1CCCC1 [Example 47, Isophthalic acid di-(L-methionyl-pyrrolidine)amide] | 110
O=C(NC(Cc1ccccc1)C(=O)N1CCCC1)c1cccc(C(=O)NC(Cc2ccccc2)C(=O)N2CCCC2)c1 [Example 50, Isophtalic acid di-(L-phenylalanyl-pyrrolidine)amide] | 79

Further lines, results first:

IC50 [nM] | Structure (SMILES)
26 | O=C([C@@H]1CCCN1C(=O)c1cccc(C(=O)N2CCC[C@H]2C(=O)N2CCCC2)c1)N1CCCC1 [Example 11, Isophthalic acid di-(L-prolyl-pyrrolidine)amide]
0.8 | N#C[C@@H]1CCCN1C(=O)[C@@H]1CCCN1C(=O)CCC(=O)N1CCCCCC1 [Example 18, Succinic acid hexamethyleneimine L-prolyl-2(S)-cyanopyrrolidine amide]
0.8 | N#C[C@@H]1CCCN1C(=O)[C@@H]1CCCN1C(=O)CCC(=O)N1CCC[C@H]1C(=O)N1CCC[C@H]1C#N [Example 21, Succinic acid di-(L-prolyl-2(S)-cyanopyrrolidine)amide]
28 | O=C(CCCC(=O)N1CCC[C@H]1C(=O)N1CCCC1)N1CCCCCC1 [Example 48, Glutaric acid hexamethyleneimine L-prolyl-pyrrolidine amide]
